{
  "source": "patent US20230218577A1",
  "about": "“USE OF HEAT SHOCK PROTEIN INHIBITORS FOR THE TREATMENT OF NEURODEVELOPMENTAL DISORDERS” (The Children's Medical Center Corporation, priority 2020, published 2023)",
  "tested_on": "cilia (ACIII) in Tsc2-sh hippocampal neurons",
  "assay": "cilia^HCA (GFP+ ACIII+ neurons) in Tsc2-sh neurons",
  "type": "cell-based, rat",
  "conditions": "for ciliation, acute effect: 24 hrs at DIV20, concentrations that inhibited mTORC1 (8.5 μM 17-AGG, 9 μM GA, 5.5 μM rapamycin); for rescue of cilia at later ages in culture: four-day treatment between DIV16-20, endpoint DIV20",
  "from_the_text": "To investigate how mTORC1 dysregulation due to neuronal TSC loss affected ciliation, High Content image-based Assays (HCAs) were developed for unbiased quantification of cilia and mTORC1 activity (hereafter cilia^HCA and mTORC1^HCA) in primary neurons. As an in vitro model of TSC, rat hippocampal neurons transduced with lentiviral vectors (LV) expressing a short hairpin RNA (shRNA) were used directed against either the Tsc2 (Tsc2-sh) or the luciferase gene as a control (ctrl-sh) tagged with GFP. LV-mediated Tsc2 knockdown recapitulates several in vivo manifestations observed in mouse models of TSC (Di Nardo et al., Tuberous sclerosis complex activity is required to control neuronal stress responses in an mTOR-dependent manner; J Neurosci 29, 5926-5937 (2009); Di Nardo et al., Neuronal Tsc1/2 complex controls autophagy through AMPK-dependent regulation of ULK1; Hum Mol Genet 23, 3865-3874 (2014); Ebrahimi-Fakhari et al., Impaired Mitochondrial Dynamics and Mitophagy in Neuronal Models of Tuberous Sclerosis Complex; Cell Rep 17, 1053-1070 (2016); Ercan et al., Neuronal CTGF/CCN2 negatively regulates myelination in a mouse model of tuberous sclerosis complex; The Journal of experimental medicine 214, 681-697 (2017); Nie et al., The Stress-Induced Atf3-Gelsolin Cascade Underlies Dendritic Spine Deficits in Neuronal Models of Tuberous Sclerosis Complex; J Neurosci 35, 10762-10772 (2015); Nie et al., Tsc2-Rheb signaling regulates EphA-mediated axon guidance. Nat Neurosci 13, 163-172 (2010)). In vitro phenotypes include robust TSC2 protein downregulation and mTORC1 activation as shown by the time course of increased phosphorylation of ribosomal protein S6 at serine 240/244 (pS6) (FIGS. 8A-B). Both the cilia^HCA and mTORC1^HCA were optimized as imaged-based assays, where cilia and mTORC1 activity was monitored by immunofluorescent staining of ACIII to identify cilia and pS6 as a proxy of mTORC1 activation (FIGS. 8C-F). Neurons were transduced in culture at day in vitro (DIV) 1, and cilia and mTORC1 activity were assessed in a time course experiment at DIV2, 5, 7, 13, and 20 (FIG. 2A). LV-infected neurons with cilia or with phosphorylated S6 (GFP^+ ACIII^+ and GFP^+pS6^+ respectively) were identified by automated algorithms to detect subcellular structures and their co-localization specifically optimized for each assay. In control neurons, cilia development was observed between DIV2-5, which remained stable between DIV7 and DIV20 (FIGS. 2B, D). […] Reduced ciliation was validated by manual imaging and quantification of LV-infected neurons co-labeled with ACIII/centrin (FIGS. 8G-H). No changes in size or ACIII intensity were detected in the remaining cilia of the Tsc2-sh neurons (FIGS. 8I-J).\nRat hippocampal neurons were plated at a density of 20,000/well in 96-well plates (Greiner #655090) coated with Poly-D-Lysine (PDL) at 20 μg/ml. Neurons were transduced with lentivirus and processed for immunofluorescent staining at endpoint assay by fixation with 4% PFA followed by permeabilization in ice cold 100% Methanol. Neurons were then washed 3 times in PBS/0.05% Tween (PBT) containing 50 mM glycine and blocked in 2% bovine serum albumin (Sigma) in PBT (PBT/Block) at RT. For consistent and robust identification of the LV-infected neurons, cultures of both the cilia^HCA and mTORC1^HCA were stained with GFP antibody and co-labeled with ACIII or pS6 for the identification of respectively cilia and mTORC1 activity. Primary antibodies were incubated in PBT/Block overnight. The following day, neurons were washed in PBT and incubated with secondary antibodies followed by Hoechst staining. After washing with PBT, neurons were kept in PBS buffer. Aside from primary and secondary antibody administration, all the washing for immunofluorescent staining was done using the Agilent bravo automated liquid handler. […]",
  "key": {"[1]": {"conditions": "four days (DIV9-13), any dose tested"}},
  "data": [
    {"smiles": "CN(C)c1cc2c(cc1Sc1nc3c(N)nccc3n1CCNCC(C)(C)C)OCO2", "note": "[CUDC-305, 4-amino-2-[[6-(dimethylamino)-1,3-benzodioxol-5-yl]thio]-N-(2,2-dimethylpropyl)-1H-imidazo[4,5-c]pyridine-1-ethanamine]", "values": [
      {"measurement": "ciliation", "setting": "[1]", "result": "No increase"}
    ]},
    {"smiles": "CO[C@H]1C[C@@H]2CC[C@@H](C)[C@@](O)(O2)C(=O)C(=O)N2CCCC[C@H]2C(=O)O[C@H]([C@H](C)C[C@@H]2CC[C@@H](O)[C@H](OC)C2)CC(=O)[C@H](C)/C=C(\\C)[C@@H](O)[C@@H](OC)C(=O)[C@H](C)C[C@H](C)/C=C/C=C/C=C/1C", "note": "[rapamycin]", "values": [
      {"measurement": "ciliation, acute effect", "result": "Neither of the Hsp90 inhibitors nor rapamycin rescued ciliation"},
      {"measurement": "rescue of cilia at later ages in culture", "result": "Neither rapamycin nor a four-day 17-AGG treatment regimen was able to rescue the cilia"},
      {"measurement": "ciliation", "setting": "rapamycin 20 nM acute (1 day) treatment", "result": "no effect"},
      {"measurement": "ciliation", "setting": "rapamycin 20 nM for eight days between DIV5-13", "result": "significant increase"},
      {"measurement": "ciliation", "setting": "rapamycin 20 nM for four days between DIV9-13", "result": "significant increase"},
      {"measurement": "ciliation", "setting": "rapamycin 20 nM, later ages (DIV20) in culture", "result": "no effect"}
    ]},
    {"smiles": "COc1cccc(-c2cc(F)ccc2[C@H]2Cc3nc(N)nc(C)c3C(=O)N2)n1", "note": "[NPV-HSP-990, (R)-2-amino-7-((R)-4-fluoro-2-(6-methoxypyridin-2-yl)phenyl)-4-methyl-7,8-dihydropyrido[4,3-d]pyrimidin-5(6H)-one]", "values": [
      {"measurement": "ciliation", "setting": "[1]", "result": "not observed"}
    ]},
    {"smiles": "C=CCNC1=C2C[C@@H](C)C[C@H](OC)[C@H](O)[C@@H](C)/C=C(\\C)[C@H](OC(N)=O)[C@@H](OC)C=C/C=C(\\C)C(=O)NC(=CC1=O)C2=O", "note": "[17-AGG, 3 S,5S,6R,7S,8E,10R,11S,12E,14E)-21-(allylamino)-6-hydroxy-5,11-dimethoxy-3,7,9,15-tetramethyl-16,20,22-trioxo-17-azabicyclo[16.3.1]docosa-8,12,14,18,21-pentaen-10-yl] carbamate]", "values": [
      {"measurement": "ciliation, acute effect", "result": "Neither of the Hsp90 inhibitors nor rapamycin rescued ciliation"},
      {"measurement": "EC50", "setting": "Rattus norvegicus, Hippocampal neuron, treatment between DIV9-13, read-out: EC50^cilia (cilia rescue)", "result": 15, "unit": "nM"},
      {"measurement": "rescue of cilia at later ages in culture", "result": "Neither rapamycin nor a four-day 17-AGG treatment regimen was able to rescue the cilia"}
    ]}
  ]
}
